Reference: paper PMC7407491, “The Addition of a Synthetic LPS-Targeting Domain Improves Serum Stability While Maintaining Antimicrobial, Antibiofilm, and Cell Stimulating Properties of an Antimicrobial Peptide” (Biomolecules, 2020)
In brackets after ≈: the same amount, converted by molar mass. Read-outs that look alike come from different tables or passages of the source.

Key:
Experiment in all cases: Antibiogram of clinical isolate
Assay type in all cases: cell-based
Design in all cases: key to Interpretation: R represents “resistant”; I represents “intermediate”; S represents “sensitive”
[1] = system: Methicillin Resistant Staphylococcus aureus; conditions: veterinary clinical isolate
Procedure: (§1) Veterinary clinical isolates, including Salmonella typhimurium, multi-drug resistant Escherichia coli, methicillin-resistant Staphylococcus aureus (MRSA), and methicillin-resistant Staphylococcus pseudointermedius (MRSP), were kindly provided by Dr. H. Cai (Department of Pathobiology, University of Guelph, ON, Canada). An antibiogram for these strains is available in the supplementary text (Table S1). Gram-negative strains were cultured in Luria−Bertani (LB) broth. Gram-positive strains were cultured in Tryptic soy broth (TSB). Both cultures were grown under aerobic conditions at 37 °C.
(§2) 1 Where R represents “resistant”, I represents “intermediate” and S represents “sensitive”.
(§3) 2 MIC represents the minimal inhibitory concentration of the antibiotic in mcg/mL.
(§4) 3 mm represents the diameter zone of inhibition against antibiotic disc.

Escherichia coli = conditions: multi-drug resistant veterinary clinical isolate
Procedure: as §1, §2, §3, §4

[2] = system: Methicillin Resistant Staphylococcus pseudointermedius; conditions: veterinary clinical isolate
Procedure: as §1, §2, §3, §4

[3] = Staphylococcus aureus, read-out: MIC
[4] = Escherichia coli, read-out: MIC

Compound: CC1(C)S[C@@H]2[C@H](NC(=O)[C@H](C(=O)O)c3ccsc3)C(=O)N2[C@H]1C(=O)O [Ticarcillin]
- Interpretation [1]: R
- diameter zone of inhibition against antibiotic disc [1]: 14 mm

Compound: NCC[C@H](O)C(=O)N[C@@H]1C[C@H](N)[C@@H](O[C@H]2O[C@H](CN)[C@@H](O)[C@H](O)[C@H]2O)[C@H](O)[C@H]1O[C@H]1O[C@H](CO)[C@@H](O)[C@H](N)[C@H]1O [Amikacin]
- MIC [1, 3]: 9.5 µg/mL (≈ 16.2 µM)
- Interpretation [1]: S
- diameter zone of inhibition against antibiotic disc [1]: 18 mm

Compound: CO/N=C(\C(=O)N[C@@H]1C(=O)N2C(C(=O)O)=C(CSC(=O)c3ccco3)CS[C@H]12)c1csc(N)n1 [Ceftiofur]
- MIC [1, 3]: 3.9 µg/mL (≈ 7.45 µM)
- Interpretation [1]: R
- diameter zone of inhibition against antibiotic disc [1]: 19 mm

Compound: CN(C)[C@@H]1C(O)=C(C(N)=O)C(=O)[C@@]2(O)C(O)=C3C(=O)c4c(O)cccc4[C@@](C)(O)[C@H]3C[C@@H]12 [Tetracycline]
- MIC (Escherichia coli; [4]): 16 µg/mL (≈ 36 µM)
- Interpretation (Escherichia coli): R
- diameter zone of inhibition against antibiotic disc (Escherichia coli): 13 mm
- MIC ([2]; Staphylococcus, read-out: MIC): > 33 µg/mL
- Interpretation [2]: R
- diameter zone of inhibition against antibiotic disc [2]: 8 mm
- MIC [1, 3]: 0.42 µg/mL (≈ 0.945 µM)
- Interpretation [1]: S
- diameter zone of inhibition against antibiotic disc [1]: 31 mm

Compound: Titracillin-clavulanate
- Interpretation [1]: R
- diameter zone of inhibition against antibiotic disc [1]: 15 mm

Compound: C[C@@H](O)[C@H]1C(=O)N2C(C(=O)O)=C(SCCN=CN)C[C@H]12 [Imipenem]
- MIC [1, 3]: ≤ 0.56 µg/mL
- Interpretation [1]: R
- diameter zone of inhibition against antibiotic disc [1]: 39 mm

Compound: CC1(C)S[C@@H]2[C@H](NC(=O)C(C(=O)O)c3ccccc3)C(=O)N2[C@H]1C(=O)O (stereo partly drawn) [Carbenicillin]
- Interpretation [1]: R
- diameter zone of inhibition against antibiotic disc [1]: 15 mm

Compound: CC(C)(O/N=C(\C(=O)N[C@@H]1C(=O)N2C(C(=O)[O-])=C(C[n+]3ccccc3)CS[C@H]12)c1csc(N)n1)C(=O)O [Ceftazidime]
- MIC [1, 3]: 41 µg/mL (≈ 75 µM)
- Interpretation [1]: R
- diameter zone of inhibition against antibiotic disc [1]: 13 mm

Compound: C=CC1=C(C(=O)O)N2C(=O)[C@@H](NC(=O)/C(=N\OCC(=O)O)c3csc(N)n3)[C@H]2SC1 [Cefixime]
- MIC [1, 3]: > 26 µg/mL
- Interpretation [1]: R
- diameter zone of inhibition against antibiotic disc [1]: 6 mm

Compound: CO[C@@]1(NC(=O)Cc2cccs2)C(=O)N2C(C(=O)O)=C(COC(N)=O)CS[C@@H]21 [Cefoxitin]
- MIC (Escherichia coli; [4]): > 69 µg/mL
- Interpretation (Escherichia coli): R
- diameter zone of inhibition against antibiotic disc (Escherichia coli): 6 mm
- Interpretation [2]: R
- diameter zone of inhibition against antibiotic disc [2]: 24 mm

Compound: CN1CCN(c2c(F)cc3c(=O)c(C(=O)O)cn4c3c2OCN4C)CC1 [Marbofloxacin]
- Interpretation (Escherichia coli): R
- diameter zone of inhibition against antibiotic disc (Escherichia coli): 6 mm
- Interpretation [2]: R
- diameter zone of inhibition against antibiotic disc [2]: 6 mm
- Interpretation [1]: S
- diameter zone of inhibition against antibiotic disc [1]: 27 mm

Compound: O=C(N[C@H](CO)[C@H](O)c1ccc([N+](=O)[O-])cc1)C(Cl)Cl [Chloramphenicol]
- MIC [1, 3]: 4.5 µg/mL (≈ 13.9 µM)
- Interpretation [1]: S
- diameter zone of inhibition against antibiotic disc [1]: 26 mm

Compound: Cc1onc(-c2ccccc2)c1C(=O)N[C@@H]1C(=O)N2[C@@H]1SC(C)(C)[C@@H]2C(=O)O [Oxacillin]
- MIC ([2]; Staphylococcus, read-out: MIC): 1.8 µg/mL (≈ 4.48 µM)
- Interpretation [2]: R
- diameter zone of inhibition against antibiotic disc [2]: 14 mm
- Interpretation [1]: R
- diameter zone of inhibition against antibiotic disc [1]: 6 mm

Compound: CO/N=C(/C(=O)N[C@@H]1C(=O)N2C(C(=O)O)=C([C@@H]3CCCO3)CS[C@H]12)c1csc(N)n1 [Cefovecin]
- Interpretation (Escherichia coli): R
- diameter zone of inhibition against antibiotic disc (Escherichia coli): 6 mm
- Interpretation [2]: R
- diameter zone of inhibition against antibiotic disc [2]: 21 mm

Compound: Amoxicillin-clavulanate
- Interpretation (Escherichia coli): R
- MIC (Escherichia coli): > 64 µg/mL
- diameter zone of inhibition against antibiotic disc (Escherichia coli): 8 mm
- Interpretation [2]: R
- MIC [2]: 2.9 µg/mL
- diameter zone of inhibition against antibiotic disc [2]: 24 mm
- Interpretation [1]: R
- MIC [1]: 14 µg/mL
- diameter zone of inhibition against antibiotic disc [1]: 16 mm

Compound: Trimethoprim-sulfamethoxazole
- Interpretation (Escherichia coli): R
- MIC (Escherichia coli): > 10 µg/mL
- diameter zone of inhibition against antibiotic disc (Escherichia coli): 6 mm
- Interpretation [2]: R
- MIC [2]: > 10 µg/mL
- diameter zone of inhibition against antibiotic disc [2]: 6 mm
- Interpretation [1]: S
- MIC [1]: <= 4.1 mcg/mL
- diameter zone of inhibition against antibiotic disc [1]: 31 mm

Compound: CN1CCN(c2cc3c(cc2F)c(=O)c(C(=O)O)cn3-c2ccc(F)cc2)CC1 [Difloxacin]
- MIC [1, 3]: ≤ 0.07 µg/mL
- Interpretation [1]: S
- diameter zone of inhibition against antibiotic disc [1]: 30 mm

Compound: CC(=O)OCC1=C(C(=O)O)N2C(=O)[C@@H](NC(=O)Cc3cccs3)[C@H]2SC1 [Cephalothin]
- MIC (Escherichia coli; [4]): > 101 µg/mL
- Interpretation (Escherichia coli): R
- diameter zone of inhibition against antibiotic disc (Escherichia coli): 6 mm
- MIC ([2]; Staphylococcus, read-out: MIC): 1.4 µg/mL (≈ 3.53 µM)
- Interpretation [2]: R
- diameter zone of inhibition against antibiotic disc [2]: 27 mm
- MIC [1, 3]: 2.2 µg/mL (≈ 5.55 µM)
- Interpretation [1]: R
- diameter zone of inhibition against antibiotic disc [1]: 25 mm

Compound: C[C@@H]1CN(c2c(F)c(F)c3c(=O)c(C(=O)O)cn(C4CC4)c3c2F)C[C@H](C)N1 [Orbifloxacin]
- MIC (Escherichia coli; [4]): > 40 µg/mL
- Interpretation (Escherichia coli): R
- diameter zone of inhibition against antibiotic disc (Escherichia coli): 6 mm
- MIC ([2]; Staphylococcus, read-out: MIC): > 40 µg/mL
- Interpretation [2]: R
- diameter zone of inhibition against antibiotic disc [2]: 6 mm
- MIC [1, 3]: 0.25 µg/mL (≈ 0.632 µM)
- Interpretation [1]: S
- diameter zone of inhibition against antibiotic disc [1]: 27 mm

Compound: CNC(C)C1CCC(N)C(OC2C(N)CC(N)C(OC3OCC(C)(O)C(NC)C3O)C2O)O1 (stereo not drawn) [Gentamicin]
- MIC (Escherichia coli; [4]): 2.6 µg/mL (≈ 5.44 µM)
- Interpretation (Escherichia coli): S
- diameter zone of inhibition against antibiotic disc (Escherichia coli): 18 mm
- MIC ([2]; Staphylococcus, read-out: MIC): 7.9 µg/mL (≈ 16.5 µM)
- Interpretation [2]: I
- diameter zone of inhibition against antibiotic disc [2]: 14 mm
- MIC [1, 3]: 31 µg/mL (≈ 64.9 µM)
- Interpretation [1]: R
- diameter zone of inhibition against antibiotic disc [1]: 9 mm

Compound: CCN1CCN(c2cc3c(cc2F)c(=O)c(C(=O)O)cn3C2CC2)CC1 [Enrofloxacin]
- MIC (Escherichia coli; [4]): > 18 µg/mL
- Interpretation (Escherichia coli): R
- diameter zone of inhibition against antibiotic disc (Escherichia coli): 7 mm
- MIC ([2]; Staphylococcus, read-out: MIC): > 19 µg/mL
- Interpretation [2]: R
- diameter zone of inhibition against antibiotic disc [2]: 6 mm
- MIC [1, 3]: ≤ 0.099 µg/mL
- Interpretation [1]: S
- diameter zone of inhibition against antibiotic disc [1]: 29 mm

Compound: CCN1CCN(C(=O)N[C@@H](C(=O)N[C@@H]2C(=O)N3[C@@H]2SC(C)(C)[C@@H]3C(=O)O)c2ccccc2)C(=O)C1=O [Piperacillin]
- Interpretation [1]: R
- diameter zone of inhibition against antibiotic disc [1]: 12 mm

Compound: CCC[C@@H]1C[C@@H](C(=O)N[C@@H]([C@H]2O[C@H](SC)[C@H](O)[C@@H](O)[C@H]2O)[C@H](C)Cl)N(C)C1 [Clindamycin]
- MIC ([2]; Staphylococcus, read-out: MIC): > 10 µg/mL
- Interpretation [2]: R
- diameter zone of inhibition against antibiotic disc [2]: 7 mm
- MIC [1, 3]: > 10 µg/mL
- Interpretation [1]: R
- diameter zone of inhibition against antibiotic disc [1]: 6 mm

Compound: Polymixin-B
- Interpretation [1]: R
- diameter zone of inhibition against antibiotic disc [1]: 9 mm

Compound: CC1(C)S[C@@H]2[C@H](NC(=O)[C@H](N)c3ccccc3)C(=O)N2[C@H]1C(=O)O [Ampicillin]
- MIC (Escherichia coli; [4]): > 46 µg/mL
- Interpretation (Escherichia coli): R
- diameter zone of inhibition against antibiotic disc (Escherichia coli): 6 mm
- MIC ([2]; Staphylococcus, read-out: MIC): 12 µg/mL (≈ 34.3 µM)
- Interpretation [2]: R
- diameter zone of inhibition against antibiotic disc [2]: 13 mm
- MIC [1, 3]: 19 µg/mL (≈ 54.4 µM)
- Interpretation [1]: R
- diameter zone of inhibition against antibiotic disc [1]: 11 mm
